“Also recorded” adds a separate entry of the source.
Key:
[1] = Blood–brain barrier permeability of fluorescently labelled compounds, fluorescence microscopy of brain sections; format: in vivo, rat; conditions: pepstatin conjugated with carboxyfluorescein and LVV-H7 tagged with Dansyl, given i.p. to rats; brain tissue sections, fluorescence microscopy 10×
Experimental: (§1) LVV‐H7 was dissolved in 0.9% NaCl and administered intraperitoneally (i.p.) 15 min before experiments at doses of 0.5 and 1 mg/kg. Control groups received 0.9% NaCl injections in an equivalent volume and by the same route. Pepstatin (Sigma‐Aldrich) was dissolved in 0.9% NaCl and administered i.p. at 10 mg/kg. Ethanol (95% w/v, Polmos; Poznan, Poland) was diluted with 0.9% NaCl to a 15% w/v concentration. In the CPP procedure, ethanol at doses of 1 or 1.5 g/kg (15% w/v) was administered i.p. before each conditioning phase.
The fluorescent analogue of pepstatin was synthesized on the Tentagel S RAM resin. At first, the Fmoc‐Lys (Mtt)‐OH was introduced using COMU/DIPEA, according to the procedure described above. To remove the Mtt group, the dried resin was treated with the TFE/HFIP/TIS/DCM mixture: 1:2:0.5:6.5 (v/v). Labelling with 5(6)‐carboxyfluorescein was performed with 5(6)‐carboxyfluorescein/HOBt/DIC in a molar ratio of 1:1:1. […] The high‐resolution MS characterized the probe, and preparative HPLC assessed its purity.
We investigated the ability of synthesized LVV‐H7 and pepstatin to cross the blood–brain barrier (BBB). […] Brain tissue samples from treated rats were then analysed using fluorescence microscopy.
FIGURE 3 Rat brain sections under visible light and fluorescence microscopy 10×: (a) pepstatin labelled with carboxyfluorescein, (b) LVV‐H7 labelled with Dansyl.

[2] = tested on: μ‐opioid receptor (OPRM1); assay: Western blot densitometry of OPRM1 expression in CNS structures after the CPP test; format: in vivo, rat; conditions: ethanol alone versus control
Experimental: (§2) Brain structures and spinal cords isolated from the animals were homogenized in 50 μL of the buffer consisting of 50 mM Tris/HCl, pH 7.6 and 150 mM NaCl in the presence of a proteinase inhibitor cocktail (Roche). Cells were homogenized thrice on ice by sonication (5 s each). The homogenate was centrifuged at 25 000g for 30 min at 4°C. The final protein concentration in the supernatant was determined using a Bradford assay kit (Sigma‐Aldrich).
(§3) One‐dimensional polyacrylamide gel electrophoresis was performed after standardizing the samples according to their total protein concentration. Thirty microlitres of the Laemmli sample buffer (Bio‐Rad, USA) were added to the subsequent volume of each sample, followed by incubation for 5 min at 90°C in a Thermomixer (Eppendorf). According to the Bio‐Rad protocol, proteins were separated on the 10% SDS‐PAGE.
(§4) Mini Protean system and electrotransferred onto the PVDF membrane (Bio‐Rad, USA). The adequate antibodies confirmed the presence of proteins (Biorbyt, UK). […]
(§5) Protein expression levels were measured using standard Western blotting. SDS‐PAGE was performed after standardizing protein extracts based on total protein concentration (determined via the Bradford method), immunotransfer, and immunodetection. Densitometric analysis was conducted to quantify protein levels in all structures from five animals. […]

DARPP‐32 = assay: Western blot densitometry of DARPP‐32 expression in CNS structures after the CPP test; format: in vivo, rat; conditions: alcohol alone
Experimental: as §2, §3, §4, §5

male Wistar rats = assay: Ethanol conditioned place preference (CPP) test; format: in vivo, rat
Experimental: All conducted experiments used male Wistar rats (Experimental Medicine Center, Lublin, Poland) weighing 220 ± 20 g. The animals were housed under standard laboratory conditions (22°C, 12:12‐h light–dark cycle; light on at 8:00 AM) in groups of four rats per cage. The animals were allowed 7 days for acclimation before experiments with access to standard food (Bacutil; Motycz, Poland) and water ad libitum. After 7 days of adaptation and handling, the animals were divided into groups of 7–8 and prepared for the tests. Behavioural experiments were carried out according to the National Institute of Health Guidelines for the Care and Use of Laboratory Animals and the European Community Council Directive for Care and Use of Laboratory Animals (86/609/EEC). The Local Ethics Committee approved them. Additionally, we confirm that ARRIVE guidelines report the study.
as §1
In our experiments, eight identical rectangular CPP boxes (60 cm × 35 cm × 30 cm), each one composed of three compartments: two large compartments (25 cm × 35 cm) and a smaller central grey compartment (10 cm × 10 cm), were used. In one of the compartments, the inside walls were white, and the floor held a large grid, whereas the walls of the other compartment were painted black, and the floor held a narrow grid. Illumination in the testing room was adjusted so that the environmental (visual and tactile) cues would not produce a significant baseline preference for a specific compartment. Both large compartments were separated from a central grey area by the removable guillotine doors, the opening of which provided access to the larger compartments. The apparatus was thoroughly cleaned between each test procedure and then wiped with dry paper towels to neutralize odour traces. […] The CPP performance was measured by computerized video tracking.
The CPP paradigm was carried out according to an unbiased procedure with minor modifications. […] The time spent in each compartment was measured during the pre‐test phase. […]
During the second phase (pre‐conditioning test), 24 h after the habituation session, rats were placed in the central grey square compartment of the CPP apparatus with free access to all compartments for 15 min. The time spent in each compartment was recorded with a computer programme. […]

NMDA receptor (NMDAR1) = assay: Western blot densitometry of NMDA receptor expression in CNS structures after the CPP test; format: in vivo, rat; conditions: ethanol alone versus control
Experimental: as §2, §3, §4, §5

With `CC(C)C[C@H](N)C(=O)N[C@H](C(=O)N[C@H](C(=O)N[C@@H](Cc1ccc(O)cc1)C(=O)N1CCC[C@H]1C(=O)N[C@@H](Cc1c[nH]c2ccccc12)C(=O)N[C@H](C(=O)N[C@@H](CCC(N)=O)C(=O)N[C@@H](CCCNC(=N)N)C(=O)N[C@@H](Cc1ccccc1)C(=O)O)[C@@H](C)O)C(C)C)C(C)C` [LVV‐H7, LVV‐hemorphin‐7] the “ability to cross the blood–brain barrier (BBB)” value [1] was “successfully cross the BBB”, the “enzyme involved in the production of fragment VV-H7” value (proteins identified in active Fraction 29 of spinal cord homogenate, nanoLC-MALDI-MS/MS) was “puromycin‐sensitive aminopeptidase (PSA)” and the “degradation products of LVV-H7 after incubation with homogenates” value (rat spinal cord homogenate, DEAE fractions, LVV-hemorphin 60 μg/mL, 10 μL in 40 μL, Tris–HCl pH 7.4, 37°C, 1 h, read-out mass spectrometry) was “VVYPWTQRF, YPWTQRF, PWTQRF and LVVYPWTQR fragments were mainly revealed”.
For `CCO` [ethanol], the “OPRM1 expression following EtOH administration” value [2] was “statistically significant upregulation”, the “DARPP-32 expression after alcohol administration” value (DARPP‐32) was “upregulation” and the “time spent in the drug-associated compartment on the CPP test day” value (male Wistar rats; ethanol 1.0 g/kg i.p., 10-day conditioning, versus 0.9% NaCl group) was “did not change the time spent; also recorded: did not evoke any rewarding effects”. For the same molecule, the “time spent in the drug-paired compartment on the CPP test day (expression of ethanol-induced CPP)” value (male Wistar rats; ethanol 1.5 g/kg (15% w/v) i.p., 10-day conditioning, versus 0.9% NaCl group) was “spent significantly more time” and the “NMDA receptor expression following EtOH administration” value (NMDA receptor (NMDAR1)) was “statistically significant upregulation”.
With pepstatin the “ability to cross the blood–brain barrier (BBB)” value [1] was “successfully cross the BBB”, the “expression of ethanol-CPP after pepstatin pretreatment” value (male Wistar rats; pepstatin 10 mg/kg i.p. 5 min before each ethanol injection (1.5 g/kg, 15% w/v, i.p.) during 10-day conditioning, p < 0.001) was “significantly blocked the expression of ethanol‐CPP” and the “time spent in the drug-associated compartment, pepstatin given alone” value (male Wistar rats; pepstatin 10 mg/kg i.p. before each conditioning session, no ethanol, versus 0.9% NaCl) was “did not change the time spent”.
